“And” between values parts separate entries of the source, which are not always exact repeats. Equal entries are not always repeated.
Details: 101.33 kPa, Liquid

CCCCCCCCCCCCCCCCCC [octadecane]
viscosity
Details	Concentric cylinders viscometry	Cone and plate viscometry
299.75 K	–	3.95 mPa·s
299.95 K	–	3.92 mPa·s
300.05 K	–	4.21 mPa·s
300.15 K	–	3.91 mPa·s and 4.12 mPa·s
300.35 K	–	3.89 mPa·s and 4.09 mPa·s
300.55 K	–	3.86 mPa·s
300.65 K	–	4.06 mPa·s and 4.17 mPa·s
300.75 K	–	3.84 mPa·s
300.85 K	–	3.84 mPa·s and 4.04 mPa·s
300.95 K	–	3.82 mPa·s
300.96 K	4.095 mPa·s	–
301.15 K	–	3.81 mPa·s and 4.02 mPa·s and 4.13 mPa·s
301.29 K	4.068 mPa·s [middle of 4 runs]	–
301.35 K	–	3.8 mPa·s and 4 mPa·s
301.36 K	4.052 mPa·s	–
301.55 K	–	3.8 mPa·s
301.65 K	–	3.98 mPa·s and 4.09 mPa·s
301.75 K	–	3.76 mPa·s and 3.74 mPa·s
301.76 K	4.011 mPa·s	–
301.84 K	4.009 mPa·s	–
301.85 K	–	3.96 mPa·s
301.95 K	–	3.77 mPa·s
302.05 K	–	3.71 mPa·s
302.15 K	–	3.76 mPa·s and 3.93 mPa·s and 4.04 mPa·s
302.18 K	3.967 mPa·s	–
302.35 K	–	3.72 mPa·s and 3.91 mPa·s
302.45 K	–	3.69 mPa·s
302.55 K	–	3.73 mPa·s
302.58 K	3.927 mPa·s	–
302.64 K	3.926 mPa·s	–
302.65 K	–	3.88 mPa·s and 4.01 mPa·s
302.75 K	–	3.71 mPa·s
302.85 K	–	3.85 mPa·s and 3.66 mPa·s
302.95 K	–	3.69 mPa·s
302.96 K	3.884 mPa·s	–
303.15 K	–	3.72 mPa·s [middle of 6 runs]
303.35 K	–	3.67 mPa·s and 3.81 mPa·s
303.38 K	3.837 mPa·s [middle of 5 runs]	–
303.4 K	3.838 mPa·s	–
303.42 K	3.846 mPa·s	–
303.55 K	–	3.63 mPa·s and 3.61 mPa·s
303.65 K	–	3.78 mPa·s and 3.93 mPa·s
303.75 K	–	3.64 mPa·s
303.81 K	3.799 mPa·s	–
303.85 K	–	3.77 mPa·s and 3.59 mPa·s
303.95 K	–	3.65 mPa·s
304.15 K	–	3.6 mPa·s and 3.75 mPa·s and 3.89 mPa·s
304.19 K	3.769 mPa·s	–
304.21 K	3.762 mPa·s	–
304.25 K	–	3.56 mPa·s
304.35 K	–	3.58 mPa·s and 3.73 mPa·s
304.55 K	–	3.57 mPa·s and 3.53 mPa·s
304.58 K	3.727 mPa·s	–
304.65 K	–	3.7 mPa·s and 3.85 mPa·s
304.75 K	–	3.56 mPa·s
304.85 K	–	3.69 mPa·s
304.92 K	3.694 mPa·s	–
304.95 K	–	3.53 mPa·s and 3.51 mPa·s
305.08 K	3.678 mPa·s	–
305.15 K	–	3.55 mPa·s and 3.67 mPa·s and 3.81 mPa·s
305.25 K	–	3.48 mPa·s
305.35 K	–	3.5 mPa·s and 3.64 mPa·s
305.46 K	3.642 mPa·s	–
305.55 K	–	3.5 mPa·s
305.65 K	–	3.62 mPa·s and 3.47 mPa·s and 3.77 mPa·s
305.7 K	3.624 mPa·s	–
305.75 K	–	3.48 mPa·s
305.84 K	3.606 mPa·s	–
305.85 K	–	3.6 mPa·s
305.95 K	–	3.46 mPa·s
306.05 K	–	3.43 mPa·s
306.15 K	–	3.47 mPa·s and 3.58 mPa·s and 3.72 mPa·s
306.23 K	3.571 mPa·s	–
306.35 K	–	3.47 mPa·s and 3.56 mPa·s and 3.42 mPa·s
306.42 K	3.556 mPa·s	–
306.55 K	–	3.44 mPa·s
306.61 K	3.538 mPa·s	–
306.65 K	–	3.54 mPa·s and 3.69 mPa·s
306.75 K	–	3.42 mPa·s and 3.39 mPa·s
306.85 K	–	3.52 mPa·s
306.95 K	–	3.43 mPa·s
306.98 K	3.502 mPa·s	–
307.05 K	–	3.36 mPa·s
307.15 K	–	3.42 mPa·s and 3.5 mPa·s and 3.66 mPa·s
307.3 K	3.478 mPa·s	–
307.35 K	–	3.4 mPa·s and 3.49 mPa·s
307.37 K	3.469 mPa·s	–
307.45 K	–	3.35 mPa·s
307.55 K	–	3.39 mPa·s
307.65 K	–	3.47 mPa·s and 3.62 mPa·s
307.72 K	3.438 mPa·s	–
307.75 K	–	3.38 mPa·s and 3.32 mPa·s
307.84 K	3.426 mPa·s and 3.427 mPa·s	–
307.85 K	3.426 mPa·s	3.45 mPa·s
307.87 K	3.426 mPa·s	–
307.93 K	3.424 mPa·s	–
307.95 K	–	3.35 mPa·s
308.07 K	3.413 mPa·s	–
308.11 K	3.404 mPa·s	–
308.15 K	–	3.35 mPa·s [middle of 6 runs]
308.35 K	–	3.31 mPa·s and 3.42 mPa·s
308.55 K	–	3.29 mPa·s and 3.28 mPa·s
308.59 K	3.363 mPa·s	–
308.65 K	–	3.39 mPa·s and 3.53 mPa·s
308.75 K	–	3.29 mPa·s
308.83 K	3.349 mPa·s	–
308.85 K	–	3.37 mPa·s and 3.26 mPa·s
308.95 K	–	3.29 mPa·s
308.96 K	3.333 mPa·s	–
309.15 K	–	3.27 mPa·s and 3.36 mPa·s and 3.49 mPa·s
309.25 K	–	3.25 mPa·s
309.3 K	3.306 mPa·s	–
309.35 K	–	3.26 mPa·s and 3.34 mPa·s
309.55 K	–	3.28 mPa·s and 3.22 mPa·s
309.58 K	3.286 mPa·s	–
309.65 K	–	3.32 mPa·s and 3.45 mPa·s
309.68 K	3.276 mPa·s	–
309.75 K	–	3.24 mPa·s
309.85 K	–	3.3 mPa·s
309.95 K	–	3.22 mPa·s and 3.2 mPa·s
310.04 K	3.245 mPa·s	–
310.15 K	–	3.21 mPa·s and 3.28 mPa·s and 3.42 mPa·s
310.25 K	–	3.18 mPa·s
310.32 K	3.229 mPa·s	–
310.35 K	–	3.22 mPa·s and 3.26 mPa·s
310.41 K	3.218 mPa·s	–
310.55 K	–	3.18 mPa·s
310.65 K	–	3.25 mPa·s and 3.14 mPa·s and 3.38 mPa·s
310.75 K	–	3.17 mPa·s
310.77 K	3.19 mPa·s	–
310.85 K	–	3.24 mPa·s
310.95 K	–	3.15 mPa·s and 3.12 mPa·s
311.04 K	3.171 mPa·s	–
311.15 K	–	3.14 mPa·s and 3.22 mPa·s and 3.35 mPa·s
311.16 K	3.159 mPa·s	–
311.35 K	–	3.14 mPa·s and 3.2 mPa·s and 3.1 mPa·s
311.54 K	3.13 mPa·s	–
311.55 K	–	3.14 mPa·s
311.65 K	–	3.19 mPa·s and 3.32 mPa·s
311.75 K	–	3.12 mPa·s and 3.07 mPa·s
311.78 K	3.118 mPa·s	–
311.85 K	–	3.17 mPa·s
311.95 K	–	3.11 mPa·s
311.96 K	3.099 mPa·s	–
312.05 K	–	3.05 mPa·s
312.15 K	–	3.1 mPa·s and 3.15 mPa·s and 3.28 mPa·s
312.33 K	3.071 mPa·s	–
312.35 K	–	3.1 mPa·s and 3.14 mPa·s
312.45 K	3.065 mPa·s	3.04 mPa·s
312.55 K	–	3.07 mPa·s
312.65 K	–	3.12 mPa·s and 3.26 mPa·s
312.69 K	3.043 mPa·s	–
312.75 K	–	3.07 mPa·s and 3.01 mPa·s
312.85 K	–	3.1 mPa·s
312.95 K	–	3.07 mPa·s
313.15 K	–	3.04 mPa·s [middle of 6 runs]
313.18 K	3.011 mPa·s and 3.01 mPa·s	–
313.24 K	3.009 mPa·s	–
313.25 K	3.009 mPa·s	–
313.26 K	3.008 mPa·s and 3.011 mPa·s	–
313.34 K	3.01 mPa·s	–
313.35 K	–	3.01 mPa·s and 3.07 mPa·s
313.45 K	–	2.98 mPa·s
313.55 K	2.985 mPa·s	3.01 mPa·s
313.65 K	–	3.05 mPa·s and 3.21 mPa·s
313.75 K	–	3.01 mPa·s
313.85 K	–	3.04 mPa·s and 2.96 mPa·s
313.93 K	2.956 mPa·s	–
313.95 K	–	3 mPa·s
314 K	2.951 mPa·s	–
314.15 K	–	2.99 mPa·s and 3.02 mPa·s and 3.18 mPa·s
314.25 K	–	2.93 mPa·s
314.3 K	2.931 mPa·s	–
314.35 K	–	2.96 mPa·s and 3.01 mPa·s
314.55 K	–	2.97 mPa·s and 2.92 mPa·s
314.65 K	2.907 mPa·s	3 mPa·s and 3.16 mPa·s
314.67 K	2.905 mPa·s	–
314.75 K	–	2.97 mPa·s
314.85 K	–	2.98 mPa·s
314.95 K	–	2.94 mPa·s and 2.9 mPa·s
315.01 K	2.882 mPa·s	–
315.15 K	–	2.96 mPa·s and 2.97 mPa·s and 3.13 mPa·s
315.35 K	–	2.91 mPa·s and 2.95 mPa·s and 2.88 mPa·s
315.41 K	2.854 mPa·s	–
315.43 K	2.857 mPa·s	–
315.55 K	–	2.91 mPa·s
315.65 K	–	2.94 mPa·s and 2.87 mPa·s and 3.1 mPa·s
315.75 K	–	2.9 mPa·s
315.77 K	2.833 mPa·s	–
315.85 K	–	2.92 mPa·s
315.95 K	–	2.89 mPa·s
316.05 K	–	2.84 mPa·s
316.12 K	2.81 mPa·s	–
316.13 K	2.812 mPa·s	–
316.15 K	–	2.88 mPa·s and 2.9 mPa·s and 3.08 mPa·s
316.35 K	–	2.88 mPa·s and 2.89 mPa·s and 2.83 mPa·s
316.5 K	2.785 mPa·s	–
316.55 K	–	2.88 mPa·s
316.65 K	–	2.87 mPa·s and 2.81 mPa·s and 3.06 mPa·s
316.75 K	–	2.88 mPa·s
316.81 K	2.771 mPa·s	–
316.83 K	2.763 mPa·s	–
316.85 K	–	2.86 mPa·s
316.95 K	–	2.88 mPa·s
317.15 K	–	2.86 mPa·s [middle of 4 runs]
317.2 K	2.74 mPa·s	–
317.35 K	–	2.83 mPa·s and 2.84 mPa·s
317.45 K	–	2.79 mPa·s
317.46 K	2.732 mPa·s	–
317.55 K	–	2.82 mPa·s
317.61 K	2.715 mPa·s	–
317.65 K	–	2.84 mPa·s and 3.02 mPa·s
317.75 K	–	2.84 mPa·s and 2.83 mPa·s
317.95 K	–	2.82 mPa·s and 2.83 mPa·s
317.96 K	2.694 mPa·s	–
318.08 K	2.693 mPa·s	–
318.15 K	–	2.83 mPa·s [middle of 5 runs]
318.26 K	2.679 mPa·s	–
318.43 K	2.672 mPa·s	–
318.45 K	2.665 mPa·s	–
318.49 K	2.653 mPa·s	–
318.5 K	2.654 mPa·s	–
318.53 K	2.655 mPa·s	–
318.57 K	2.661 mPa·s	–
318.58 K	2.662 mPa·s	–
318.59 K	2.655 mPa·s	–
318.6 K	2.659 mPa·s	–
318.61 K	2.657 mPa·s	–
318.64 K	2.654 mPa·s	–
318.65 K	2.66 mPa·s	–
318.69 K	2.655 mPa·s	–
